In the supplement of paper PMC10307832:

Compound: CC(O)(CS(=O)(=O)c1ccc(F)cc1)C(=O)Nc1ccc(C#N)c(C(F)(F)F)c1 [Bicalutamide] + CC(C)C[C@H](NC(=O)[C@H](Cc1ccccc1)NC(=O)c1cnccn1)B(O)O [Bortezomib] (partner 0.002 µM)
Assay: relative viability (nuclei count vs DMSO), 5 days (fraction); higher = more cells survive
Conditions: first compound 2.53 µM
In short: (§1)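 Lung cancer cell lines in 1536-well plates were dosed by pin tool the day after seeding, either with one drug alone or with a fixed anchor-drug dose plus five library-drug doses (not always all listed) in √10 steps. After 5 days, cells were fixed and their nuclei stained in one step (final 0.05% Triton X-100, 1% formaldehyde, 1 ug/ml Hoechst), then counted on 4× images. Relative viability is the nuclei count in treated wells divided by that in vehicle wells. Values are medians of duplicate plates.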

Row | Cell Line | relative viability
1 | HCC-44 | 0.989
2 | LU99A | 0.846
3 | BEN | 0.917
4 | HARA | 1.22
5 | NCI-H727 | 0.626
6 | NCI-H1299 | 1.04
7 | NCI-H1792 | 1.07
8 | NCI-H1563 | 0.767
9 | ABC-1 | 0.319

Compound: CC(O)(CS(=O)(=O)c1ccc(F)cc1)C(=O)Nc1ccc(C#N)c(C(F)(F)F)c1 [Bicalutamide] + Cc1nc(Nc2ncc(C(=O)Nc3c(C)cccc3Cl)s2)cc(N2CCN(CCO)CC2)n1 [Dasatinib] (partner 0.075 µM)
Assay: as above
Conditions: first compound 0.08 µM
In short: as §1

Row | Cell Line | relative viability
10 | NCI-H522 | 0.815
11 | NCI-H838 | 0.319
12 | NCI-H1650 | 0.34
13 | NCI-H2009 | 0.337
14 | NCI-H1993 | 0.576
15 | PC-14 | 0.263
16 | LCLC-103H | 0.401
17 | NCI-H596 | 0.576
18 | NCI-H2228 | 0.476
19 | EMC-BAC-2 | 0.347
20 | NCI-H2087 | 0.851
21 | HCC-366 | 0.556
22 | NCI-H1666 | 0.915
23 | NCI-H647 | 0.187
24 | LK-2 | 0.283
25 | NCI-H2126 | 0.628
26 | NCI-H2342 | 0.324
27 | SK-MES-1 | 0.343
28 | H3255 | 0.491

Row | Cell Line | relative viability
29 | COR-L23 | 0.628
30 | COR-L 105 | 0.325
31 | LOU-NH91 | 0.635
32 | ChaGo-K-1 | 0.613
33 | NCI-H2170 | 0.532
34 | NCI-H3122 | 0.922
35 | HOP-62 | 0.663
36 | SW 900 | 0.856
37 | LU99A | 0.569
38 | BEN | 0.355
39 | HARA | 0.273
40 | NCI-H727 | 0.376
41 | NCI-H1395 | 0.406
42 | NCI-H1792 | 0.84
43 | NCI-H1793 | 0.369
44 | NCI-H1563 | 0.449
45 | NCI-H1944 | 0.233
46 | ABC-1 | 0.658
47 | NCI-H358 | 0.154

Same assay, conditions: first compound 0.253 µM

Row | Cell Line | relative viability
48 | NCI-H522 | 0.722
49 | NCI-H1623 | 0.524
50 | NCI-H838 | 0.303
51 | NCI-H1650 | 0.245
52 | NCI-H2009 | 0.321
53 | NCI-H1993 | 0.461
54 | PC-14 | 0.223
55 | LCLC-103H | 0.428
56 | NCI-H596 | 0.599
57 | NCI-H2228 | 0.479
58 | EMC-BAC-2 | 0.287
59 | NCI-H2087 | 0.87
60 | HCC-366 | 0.481
61 | NCI-H1666 | 0.789
62 | NCI-H647 | 0.173
63 | LK-2 | 0.224
64 | NCI-H2126 | 0.581
65 | NCI-H2342 | 0.276
66 | SK-MES-1 | 0.358

Row | Cell Line | relative viability
67 | H3255 | 0.39
68 | COR-L23 | 0.513
69 | COR-L 105 | 0.257
70 | LOU-NH91 | 0.43
71 | ChaGo-K-1 | 0.557
72 | NCI-H2170 | 0.497
73 | NCI-H3122 | 0.791
74 | HOP-62 | 0.646
75 | SW 900 | 0.445
76 | LU99A | 0.536
77 | BEN | 0.316
78 | HARA | 0.248
79 | NCI-H1395 | 0.404
80 | NCI-H1792 | 0.509
81 | NCI-H1793 | 0.349
82 | NCI-H1563 | 0.456
83 | NCI-H1944 | 0.203
84 | ABC-1 | 0.476
85 | NCI-H358 | 0.14

Same assay, conditions: first compound 0.8 µM

Row | Cell Line | relative viability
86 | NCI-H522 | 0.901
87 | NCI-H1623 | 0.562
88 | NCI-H838 | 0.392
89 | NCI-H1650 | 0.381
90 | NCI-H2009 | 0.278
91 | NCI-H1993 | 0.711
92 | PC-14 | 0.264
93 | LCLC-103H | 0.52
94 | NCI-H596 | 0.798
95 | NCI-H2228 | 0.522
96 | EMC-BAC-2 | 0.33
97 | NCI-H2087 | 1.05
98 | HCC-366 | 0.749
99 | NCI-H1666 | 0.767
100 | NCI-H647 | 0.208
101 | LK-2 | 0.261
102 | NCI-H2126 | 0.632
103 | NCI-H2342 | 0.299
104 | SK-MES-1 | 0.427

Row | Cell Line | relative viability
105 | COR-L23 | 0.407
106 | COR-L 105 | 0.325
107 | LOU-NH91 | 0.605
108 | ChaGo-K-1 | 0.561
109 | NCI-H2170 | 0.584
110 | NCI-H3122 | 0.938
111 | HOP-62 | 0.815
112 | SW 900 | 0.658
113 | LU99A | 0.738
114 | BEN | 0.393
115 | HARA | 0.314
116 | NCI-H727 | 0.383
117 | NCI-H1395 | 0.414
118 | NCI-H1792 | 1.06
119 | NCI-H1793 | 0.486
120 | NCI-H1563 | 0.512
121 | NCI-H1944 | 0.216
122 | ABC-1 | 0.725
123 | NCI-H358 | 0.16

Same assay, conditions: first compound 2.53 µM

Row | Cell Line | relative viability
124 | NCI-H522 | 0.87
125 | NCI-H1623 | 0.54
126 | NCI-H838 | 0.272
127 | NCI-H1650 | 0.301
128 | NCI-H2009 | 0.222
129 | NCI-H1993 | 0.582
130 | PC-14 | 0.18
131 | LCLC-103H | 0.425
132 | NCI-H596 | 0.598
133 | NCI-H2228 | 0.55
134 | EMC-BAC-2 | 0.298
135 | NCI-H2087 | 0.816
136 | HCC-366 | 0.5
137 | NCI-H1666 | 0.731
138 | NCI-H647 | 0.139
139 | LK-2 | 0.293
140 | NCI-H2126 | 0.555

Row | Cell Line | relative viability
141 | NCI-H2342 | 0.306
142 | SK-MES-1 | 0.301
143 | H3255 | 0.359
144 | COR-L23 | 0.476
145 | COR-L 105 | 0.285
146 | LOU-NH91 | 0.568
147 | ChaGo-K-1 | 0.542
148 | NCI-H2170 | 0.563
149 | NCI-H3122 | 0.889
150 | HOP-62 | 0.516
151 | SW 900 | 0.509
152 | LU99A | 0.444
153 | BEN | 0.38
154 | HARA | 0.265
155 | NCI-H727 | 0.653
156 | NCI-H1395 | 0.353
157 | NCI-H1792 | 0.856
